Data reported in article PMC12540828, “Fexofenadine protects against osteoarthritis by targeting Smad2 and STAT1 to enhance anabolism and binding cPLA2 to inhibit catabolism” (Cell Death Discovery, 2025).
pKd: −log10 of the molar value.

Tests used:
[1] = molecular target: T1, STAT1 (purified recombinant, His-tagged) (Homo sapiens, UniProt P42224); assay: microscale thermophoresis; format: binding
T1 construct: purified recombinant, His-tagged, RED-NHS labelled
T1 sequence (P42224 2-750): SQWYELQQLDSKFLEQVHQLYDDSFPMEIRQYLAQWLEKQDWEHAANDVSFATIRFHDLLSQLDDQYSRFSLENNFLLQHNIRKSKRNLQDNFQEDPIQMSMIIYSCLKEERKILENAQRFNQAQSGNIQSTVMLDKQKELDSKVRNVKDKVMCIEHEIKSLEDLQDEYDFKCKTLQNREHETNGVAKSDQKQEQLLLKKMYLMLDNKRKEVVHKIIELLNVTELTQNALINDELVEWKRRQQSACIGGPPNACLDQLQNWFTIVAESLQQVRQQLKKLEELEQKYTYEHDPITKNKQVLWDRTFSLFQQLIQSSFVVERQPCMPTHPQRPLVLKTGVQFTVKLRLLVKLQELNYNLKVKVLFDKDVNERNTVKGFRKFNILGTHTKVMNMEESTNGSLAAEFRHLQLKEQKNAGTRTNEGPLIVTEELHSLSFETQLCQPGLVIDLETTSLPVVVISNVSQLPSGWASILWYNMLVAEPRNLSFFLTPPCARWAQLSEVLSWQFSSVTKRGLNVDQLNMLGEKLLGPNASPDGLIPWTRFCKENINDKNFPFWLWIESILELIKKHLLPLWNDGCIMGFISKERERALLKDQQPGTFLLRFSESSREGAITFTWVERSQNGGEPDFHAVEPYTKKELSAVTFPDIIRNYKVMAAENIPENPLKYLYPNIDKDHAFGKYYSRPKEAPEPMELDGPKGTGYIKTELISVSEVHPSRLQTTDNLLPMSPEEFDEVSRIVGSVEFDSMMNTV

[2] = molecular target: T2, Smad2 (endogenous, human chondrocytes) (Homo sapiens, UniProt Q15796); assay: CETSA and DARTS, Western blot; format: biochemical; details: CETSA with FFD 10 μM
T2 construct: endogenous, read by Western blot

cPLA2 = molecular target: T3, cPLA2 (Homo sapiens, UniProt P47712); assay: DARTS, Western blot; format: biochemical; details: chondrocyte lysate; protease digestion
T3 construct: gene PLA2G4A; endogenous, chondrocyte lysate, read by Western blot
T3 sequence (P47712 1-749): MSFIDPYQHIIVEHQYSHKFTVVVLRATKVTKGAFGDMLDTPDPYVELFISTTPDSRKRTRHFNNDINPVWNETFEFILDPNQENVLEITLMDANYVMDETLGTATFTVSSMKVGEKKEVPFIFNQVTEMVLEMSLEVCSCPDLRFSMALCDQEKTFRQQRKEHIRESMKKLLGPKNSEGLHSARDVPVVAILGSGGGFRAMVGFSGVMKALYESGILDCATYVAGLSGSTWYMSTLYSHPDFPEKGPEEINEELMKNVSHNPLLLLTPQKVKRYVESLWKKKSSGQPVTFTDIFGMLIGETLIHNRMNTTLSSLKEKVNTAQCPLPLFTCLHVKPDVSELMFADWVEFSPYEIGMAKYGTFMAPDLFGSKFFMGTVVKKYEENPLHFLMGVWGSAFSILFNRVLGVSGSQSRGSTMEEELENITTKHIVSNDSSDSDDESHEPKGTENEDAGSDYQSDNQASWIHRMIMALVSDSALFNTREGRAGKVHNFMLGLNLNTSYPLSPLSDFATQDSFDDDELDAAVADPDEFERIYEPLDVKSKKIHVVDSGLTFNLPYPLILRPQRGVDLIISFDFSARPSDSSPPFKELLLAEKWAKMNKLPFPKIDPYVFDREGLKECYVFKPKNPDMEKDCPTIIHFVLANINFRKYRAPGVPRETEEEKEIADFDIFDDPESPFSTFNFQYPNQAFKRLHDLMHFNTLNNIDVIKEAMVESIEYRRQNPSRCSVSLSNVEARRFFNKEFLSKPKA

[3] = molecular target: T4, STAT1 (endogenous, human chondrocytes) (Homo sapiens, UniProt P42224); assay: CETSA, Western blot; format: biochemical; details: FFD 10 μM
T4 construct: endogenous, read by Western blot
T4 sequence (P42224 2-750): T1 sequence (P42224 2-750)

T2 sequence (Q15796 2-467): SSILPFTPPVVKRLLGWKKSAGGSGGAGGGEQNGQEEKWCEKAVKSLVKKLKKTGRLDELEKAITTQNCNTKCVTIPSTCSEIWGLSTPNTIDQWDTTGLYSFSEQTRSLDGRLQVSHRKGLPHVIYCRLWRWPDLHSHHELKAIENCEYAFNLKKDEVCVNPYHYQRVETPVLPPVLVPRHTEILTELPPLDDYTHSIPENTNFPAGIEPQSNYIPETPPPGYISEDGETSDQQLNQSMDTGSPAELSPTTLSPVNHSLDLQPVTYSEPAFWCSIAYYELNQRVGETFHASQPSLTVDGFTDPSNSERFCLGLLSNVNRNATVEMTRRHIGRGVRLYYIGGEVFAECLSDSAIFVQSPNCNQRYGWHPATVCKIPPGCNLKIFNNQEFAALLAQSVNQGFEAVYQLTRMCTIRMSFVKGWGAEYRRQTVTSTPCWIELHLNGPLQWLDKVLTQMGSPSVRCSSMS

CC(C)(C(=O)O)c1ccc(C(O)CCCN2CCC(C(O)(c3ccccc3)c3ccccc3)CC2)cc1 (stereo not shown) [Fexofenadine]
pKd [1]: 5.52
CETSA and DARTS, Western blot [2]: DARTS and CETSA experiments subsequently confirmed the interaction between FFD and Smad2
DARTS, Western blot (cPLA2): cPLA2 remained undigested by the protease following incubation with FFD
Tm with FFD (control 50.49) [3]: 60.01 °C
